Results published in publication PMC5467912, “Asymmetric regulation of quorum-sensing receptors drives autoinducer-specific gene expression programs in Vibrio cholerae” (PLoS Genetics, 2017).
“And” between values parts separate entries of the source, which are not always exact repeats. Equal values may be shown once. Read-outs that look alike come from different tables or passages of the source.

Experiments:
[1] = system: T1, WT CqsS; assay type: cell-based; conditions: Treatment 1uM
T1 construct: made in house; host or cells: E. coli C43 (DE3), pET21b; used as inverted membrane vesicles

[2] = system: T2, CqsS D618N; assay: CqsS D618N autophosphorylation in inverted membrane vesicles, 32P (Fig 7A); assay type: biochemical, Vibrio cholerae
T2 construct: made in house; host or cells: E. coli C43 (DE3), pET21b; used as inverted membrane vesicles

[3] = target: T3, CqsS (Vibrio cholerae serotype O1, UniProt Q9KM66); assay: cell-based; conditions: for Light production: strain WN1102; for EC50: light production, reporter strain WN1102, 4 h at 30 °C; for RLU: Strain WN1102
T3 construct: endogenous in cells; host or cells: V. cholerae WN1102 (ΔcqsA ΔluxQ/pBB1), derived from C6706str2

[4] = system: T1, WT CqsS; assay type: biochemical; conditions: for % Total Phosphorylation: CqsS WT; for inhibition of WT CqsS autophosphorylation: saturating concentration (Fig 7B)
[5] = system: CqsS F166L; assay: CqsS-dependent repression of qrr4-gfp, CqsS F166L (Fig 7C); assay type: cell-based, Vibrio cholerae; conditions: Treatment 1uM; CqsS mutant F166L
[6] = system: CqsS C170Y; assay: CqsS-dependent repression of qrr4-gfp, CqsS C170Y (Fig 7C); assay type: cell-based, Vibrio cholerae; conditions: Treatment 1uM; CqsS mutant C170Y
[7] = system: CqsS F162A; assay: CqsS-dependent repression of qrr4-gfp, CqsS F162A (Fig 7C); assay type: cell-based, Vibrio cholerae; conditions: Treatment 1uM; CqsS mutant F162A

SMILES: O=C(Cc1ccc(-c2ccccc2)cc1)NC1CCCC1 [#10]
- Qrr4-GFP/OD600 [1]: 1697194 and 1657949 and 1642162
- % Total Phosphorylation ([2]; agonist 0.32 uM): 78.2169% and 129.787% and 72.1832% and 83.4166% and 68.7823%
- % Total Phosphorylation ([2]; agonist 0.64 uM): 67.6455% and 78.826% and 54.4942% and 82.803% and 54.4178% and 76.2235%
- % Total Phosphorylation ([2]; agonist 5.12 uM): 12.1256% and 15.8552% and 14.0183% and 14.8493% and 9.564% and 18.5457%
- % Total Phosphorylation ([2]; agonist 6.4 uM): 8.254% and 10.2835% and 8.308% and 5.772% and 5.105% and 9.008%
- % Total Phosphorylation ([2]; agonist 8 uM): 7.787% and 6.051% and 9.483% and 6.182% and 5.718% and 6.335%
- Light production ([3]; Agonist 0.0119209 nM): 9369.4 RLU and 6986.9 RLU and 10942 RLU
- Light production ([3]; Agonist 0.0476837 nM): 9423.1 RLU and 8000 RLU and 9340.1 RLU
- Light production ([3]; Agonist 0.190735 nM): 12692 RLU and 13456 RLU and 11192 RLU
- Light production ([3]; Agonist 0.762939 nM): 11313 RLU and 14104 RLU and 15238 RLU
- Light production ([3]; Agonist 3.05176 nM): 22600 RLU and 24142 RLU and 30238 RLU
- Light production ([3]; Agonist 12.207 nM): 47534 RLU and 48144 RLU and 43294 RLU
- Light production ([3]; Agonist 48.8281 nM): 434632 RLU and 280649 RLU and 290930 RLU
- Light production ([3]; Agonist 195.312 nM): 18756970 RLU and 17581320 RLU and 17098310 RLU
- Light production ([3]; Agonist 781.25 nM): 54801790 RLU and 56977330 RLU and 58542960 RLU
- Light production ([3]; Agonist 3125 nM): 59104040 RLU and 65075830 RLU and 69081300 RLU
- Light production ([3]; Agonist 12500 nM): 60176380 RLU and 64830980 RLU and 65866960 RLU
- Light production ([3]; Agonist 50000 nM): 60204070 RLU and 58034020 RLU and 58318400 RLU
- EC50 [3]: 62 nM
- % Total Phosphorylation ([4]; Agonist 0.1 uM): 86.7558%
- % Total Phosphorylation ([4]; Agonist 0.5 uM): 84.62% and 81.5912%
- % Total Phosphorylation ([4]; Agonist 1 uM): 70.72%
- % Total Phosphorylation ([4]; Agonist 5 uM): 11.17% and 6.892%
- % Total Phosphorylation ([4]; Agonist 10 uM): 7.64% and 4.71%
- % Total Phosphorylation ([4]; Agonist 20 uM): 4.64% and 6.727%
- % Total Phosphorylation ([4]; Agonist 30 uM): 7.41% and 4.674%
- % Total Phosphorylation ([4]; Agonist 100 uM): 7.94% and 6.455%
- % Total Phosphorylation ([4]; Agonist 200 uM): 9.2% and 11.8727%
- inhibition of WT CqsS autophosphorylation [4]: 90%
- Qrr4-GFP/OD600 [5]: 1551288 and 1596042 and 1572105
- Qrr4-GFP/OD600 [6]: 18211540 and 17807950 and 19517480
- Qrr4-GFP/OD600 [7]: 18605320 and 18513840 and 18292630

SMILES: CCn1nnnc1NCc1ccc(N2CCCC2)cc1 [#1]
- Qrr4-GFP/OD600 [1]: 1321723 and 1319147 and 1356464
- % Total Phosphorylation ([2]; agonist 0.32 uM): 64.1931% and 55.8048% and 58.0668% and 77.924% and 56.4082%
- % Total Phosphorylation ([2]; agonist 10 uM): 1.9% and 2.181% and 3.3092% and 3.5805%
- Light production ([3]; Agonist 0.0119209 nM): 14433 RLU and 16087 RLU and 17053 RLU
- Light production ([3]; Agonist 0.0476837 nM): 23351 RLU and 21676 RLU and 24048 RLU
- Light production ([3]; Agonist 0.190735 nM): 38851 RLU and 41951 RLU and 36905 RLU
- Light production ([3]; Agonist 0.762939 nM): 87702 RLU and 80982 RLU and 79024 RLU
- Light production ([3]; Agonist 3.05176 nM): 716543 RLU and 579623 RLU and 556962 RLU
- Light production ([3]; Agonist 12.207 nM): 18832900 RLU and 18957270 RLU and 17907730 RLU
- Light production ([3]; Agonist 48.8281 nM): 80742000 RLU and 84094230 RLU and 86837650 RLU
- Light production ([3]; Agonist 195.312 nM): 115208300 RLU and 122904000 RLU and 129103600 RLU
- Light production ([3]; Agonist 781.25 nM): 116783100 RLU and 133656800 RLU and 131724500 RLU
- Light production ([3]; Agonist 3125 nM): 109482900 RLU and 129285000 RLU and 130316000 RLU
- Light production ([3]; Agonist 12500 nM): 93560740 RLU and 110559800 RLU and 116375500 RLU
- Light production ([3]; Agonist 50000 nM): 59185800 RLU and 66981220 RLU and 65547470 RLU
- fold more potent than CAI-1 ([3]; EC50 comparison): ~ 10 fold
- RLU ([3]; agonist 0.0119209 nM): 1.70E+04 RLU and 1.69E+04 RLU and 1.12E+04 RLU
- RLU ([3]; agonist 0.0476837 nM): 2.55E+04 RLU and 2.29E+04 RLU and 2.60E+04 RLU
- RLU ([3]; agonist 0.190735 nM): 4.47E+04 RLU and 4.12E+04 RLU and 4.19E+04 RLU
- RLU ([3]; agonist 0.762939 nM): 6.42E+04 RLU and 6.05E+04 RLU and 7.48E+04 RLU
- RLU ([3]; agonist 3.05176 nM): 2.06E+05 RLU and 2.32E+05 RLU and 3.12E+05 RLU
- RLU ([3]; agonist 12.207 nM): 1.01E+07 RLU and 9.84E+06 RLU and 1.23E+07 RLU
- RLU ([3]; agonist 48.8281 nM): 9.23E+07 RLU and 8.51E+07 RLU and 1.09E+08 RLU
- RLU ([3]; agonist 195.312 nM): 1.65E+08 RLU and 1.58E+08 RLU and 1.92E+08 RLU
- RLU ([3]; agonist 781.25 nM): 1.94E+08 RLU and 2.03E+08 RLU and 2.28E+08 RLU
- RLU ([3]; agonist 3125 nM): 2.05E+08 RLU and 2.11E+08 RLU and 2.23E+08 RLU
- RLU ([3]; agonist 12500 nM): 1.88E+08 RLU and 1.94E+08 RLU and 1.93E+08 RLU
- RLU ([3]; agonist 50000 nM): 1.33E+08 RLU and 1.29E+08 RLU
- EC50 [3]: 4 nM
- % Total Phosphorylation ([4]; Agonist 0.1 uM): 100.558% and 115.09% and 103.96% and 101.973%
- % Total Phosphorylation ([4]; Agonist 0.5 uM): 68.5791% and 92.92% and 82.55% and 69.9852%
- % Total Phosphorylation ([4]; Agonist 1 uM): 45.0881% and 63.83% and 58.45% and 44.3406%
- % Total Phosphorylation ([4]; Agonist 2.5 uM): 26.3754% and 21.56% and 17.64% and 21.3677%
- % Total Phosphorylation ([4]; Agonist 5 uM): 11.5601% and 8.94% and 7.65% and 9.2554%
- % Total Phosphorylation ([4]; Agonist 10 uM): 6.306% and 5.77% and 3.8% and 4.014%
- % Total Phosphorylation ([4]; Agonist 20 uM): 3.59% and 2.41% and 2.332%
- % Total Phosphorylation ([4]; Agonist 30 uM): 2.867% and 2.2% and 1.97% and 1.073%
- % Total Phosphorylation ([4]; Agonist 100 uM): 1.456% and 1.61% and 2.02% and 0.9371%
- % Total Phosphorylation ([4]; Agonist 200 uM): 0.8391% and 0.1631%
- inhibition of WT CqsS autophosphorylation [4]: 99%
- Qrr4-GFP/OD600 [5]: 1372627 and 1402431 and 1341231
- Qrr4-GFP/OD600 [6]: 18211780 and 19558860 and 23085030
- Qrr4-GFP/OD600 [7]: 15523160 and 14988240 and 15125460
